The experiment has as its target T1, Mer (Homo sapiens, UniProt Q12866).
T1 sequence (Q12866 21-999): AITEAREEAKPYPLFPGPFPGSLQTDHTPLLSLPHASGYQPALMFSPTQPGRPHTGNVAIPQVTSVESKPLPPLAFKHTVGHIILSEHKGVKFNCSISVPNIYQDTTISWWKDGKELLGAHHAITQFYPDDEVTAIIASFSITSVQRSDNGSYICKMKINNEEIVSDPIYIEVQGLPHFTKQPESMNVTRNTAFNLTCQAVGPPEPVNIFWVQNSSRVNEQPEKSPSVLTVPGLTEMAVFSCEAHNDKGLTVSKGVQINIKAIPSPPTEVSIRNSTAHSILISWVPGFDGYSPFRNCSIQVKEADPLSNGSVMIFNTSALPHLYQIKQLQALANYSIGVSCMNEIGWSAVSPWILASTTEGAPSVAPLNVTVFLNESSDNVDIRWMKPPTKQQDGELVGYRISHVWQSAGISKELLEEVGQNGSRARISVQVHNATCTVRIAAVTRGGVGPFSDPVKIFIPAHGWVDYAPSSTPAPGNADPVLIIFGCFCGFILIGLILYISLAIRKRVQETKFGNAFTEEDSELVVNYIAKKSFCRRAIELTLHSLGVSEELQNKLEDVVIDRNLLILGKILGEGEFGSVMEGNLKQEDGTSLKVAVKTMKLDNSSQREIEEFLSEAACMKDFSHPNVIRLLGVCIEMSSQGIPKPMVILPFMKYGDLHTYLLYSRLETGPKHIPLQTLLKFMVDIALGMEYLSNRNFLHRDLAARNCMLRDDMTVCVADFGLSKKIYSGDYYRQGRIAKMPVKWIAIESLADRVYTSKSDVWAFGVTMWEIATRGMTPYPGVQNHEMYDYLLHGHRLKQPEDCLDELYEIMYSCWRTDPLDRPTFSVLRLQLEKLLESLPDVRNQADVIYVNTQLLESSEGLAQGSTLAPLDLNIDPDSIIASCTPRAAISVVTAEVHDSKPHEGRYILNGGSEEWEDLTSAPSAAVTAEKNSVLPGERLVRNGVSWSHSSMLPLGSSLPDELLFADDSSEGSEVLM
As to the kind of experiment: Mer IC50. Type of experiment: biochemical.

Compound `CCCCNc1ncc(-c2ccc(C(=O)NC3CCN(C(=O)OC(C)(C)C)CC3)cn2)c(NC2CCC(O)CC2)n1` (centres unmarked) [UNC1898A] displayed a 50% inhibitory concentration (IC50) (Table 3 (General Procedure C compounds)) of less than 10 nM.

In turn, `CCCCNc1ncc(-c2cncc(N)n2)c(N[C@H]2CC[C@H](O)CC2)n1` [UNC3118A] registered an IC50 (Table 7 (General Procedure G compounds)) of less than 10 nM.

The values above are taken from patent US9567326B2, “Pyrimidine compounds for the treatment of cancer” (THE UNIVERSITY OF NORTH CAROLINA AT CHAPEL HILL, priority 2012, dated 2017).
